{
  "source": "patent US9409914B2",
  "about": "“Triazolo[4,5-d]pyrimidine derivatives” (Merck Patent GmbH, priority 2012, dated 2016)",
  "data": [
    {"target": "GCN2 (Homo sapiens, UniProt Q9P2K8)", "sequence (Q9P2K8 whole entry, species assumed)": "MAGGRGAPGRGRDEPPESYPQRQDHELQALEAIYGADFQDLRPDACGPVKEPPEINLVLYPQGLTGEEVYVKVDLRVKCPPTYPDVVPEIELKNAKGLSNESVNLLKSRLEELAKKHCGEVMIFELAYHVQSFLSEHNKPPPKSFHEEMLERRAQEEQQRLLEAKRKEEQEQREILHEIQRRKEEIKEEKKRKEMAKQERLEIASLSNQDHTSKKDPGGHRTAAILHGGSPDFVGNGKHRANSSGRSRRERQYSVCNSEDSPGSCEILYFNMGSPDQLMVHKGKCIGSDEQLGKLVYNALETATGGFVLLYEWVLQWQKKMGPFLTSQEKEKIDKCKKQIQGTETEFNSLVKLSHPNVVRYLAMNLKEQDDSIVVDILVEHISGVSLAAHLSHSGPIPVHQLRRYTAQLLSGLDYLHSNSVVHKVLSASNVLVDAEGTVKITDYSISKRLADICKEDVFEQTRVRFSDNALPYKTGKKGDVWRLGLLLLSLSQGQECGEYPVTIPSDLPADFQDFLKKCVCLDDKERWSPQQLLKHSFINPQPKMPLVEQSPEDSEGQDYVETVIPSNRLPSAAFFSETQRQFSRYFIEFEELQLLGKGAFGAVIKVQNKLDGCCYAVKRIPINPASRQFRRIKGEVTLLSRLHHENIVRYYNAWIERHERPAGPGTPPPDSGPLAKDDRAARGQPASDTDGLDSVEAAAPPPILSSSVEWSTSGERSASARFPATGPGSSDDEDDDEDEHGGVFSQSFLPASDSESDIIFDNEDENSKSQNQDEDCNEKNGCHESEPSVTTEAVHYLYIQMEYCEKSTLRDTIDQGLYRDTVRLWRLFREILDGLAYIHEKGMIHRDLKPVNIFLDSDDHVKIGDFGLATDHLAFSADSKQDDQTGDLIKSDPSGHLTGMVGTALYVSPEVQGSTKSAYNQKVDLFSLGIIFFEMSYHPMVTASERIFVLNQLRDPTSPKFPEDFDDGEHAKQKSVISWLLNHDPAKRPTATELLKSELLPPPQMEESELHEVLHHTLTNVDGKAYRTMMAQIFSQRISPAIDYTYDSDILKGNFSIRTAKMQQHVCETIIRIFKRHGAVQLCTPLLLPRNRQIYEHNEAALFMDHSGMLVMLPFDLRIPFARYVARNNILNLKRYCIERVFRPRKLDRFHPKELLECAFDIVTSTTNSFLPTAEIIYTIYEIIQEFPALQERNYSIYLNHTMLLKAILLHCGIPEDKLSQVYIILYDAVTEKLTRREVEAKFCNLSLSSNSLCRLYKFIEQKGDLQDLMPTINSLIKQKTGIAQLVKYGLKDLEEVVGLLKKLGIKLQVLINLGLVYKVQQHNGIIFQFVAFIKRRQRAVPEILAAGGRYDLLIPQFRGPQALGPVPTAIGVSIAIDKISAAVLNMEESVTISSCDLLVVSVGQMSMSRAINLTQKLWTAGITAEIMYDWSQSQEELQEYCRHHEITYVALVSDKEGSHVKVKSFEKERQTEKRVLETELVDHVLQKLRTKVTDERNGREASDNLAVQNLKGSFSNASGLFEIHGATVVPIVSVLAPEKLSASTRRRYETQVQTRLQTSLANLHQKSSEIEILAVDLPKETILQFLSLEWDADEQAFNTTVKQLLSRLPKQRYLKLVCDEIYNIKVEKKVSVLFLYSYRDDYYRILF", "experiment": "GCN2 enzyme assay (TR-FRET Lanthascreen, phosphorylation of GFP-eIF2alpha)", "type": "biochemical", "details": "10 μM ATP, 80 nM GFP-eIF2alpha, 30 nM GCN2, room temperature", "description": "GCN2: Assay principle & conditions\nThis assay can quantificate the activity of the serin kinase GCN2 (general control non-derepressible-2).\nThis kinase is involved in the stress metabolism of cells. It is activated upon starvation (amino acid depletion). Its natural substrate is eIF2a (eukaryotic initiation factor 2 alpha subunit), a translation factor, which gets activated (phosphorylated) by GCN2 in case of an amino acid bottleneck in the cells. This in turn leads to a halt of the protein synthesis. Inhibition of GCN2 results in stopping this mechanism: The cell can not stop protein production upon “starvation” stress.\nThe assay is run in two steps: the enzymatic reaction and the detection step. In the first step GCN2 is incubated with 10 μM ATP and 80 nM of the GFP-labelled substrate eIF2alpha at room temperature.\nThe enzymatic reaction is stopped by addition of EDTA. The amount of phosphorylated eIF2alpha is determined by TR-FRET (Lanthascreen): A complex is formed consisting of antibody and GFP labelled phospho-eIF2a, which allows a FRET upon exitation at 340 nm.\nThe GCN2-activity is directly proportional to the ratio of fluorescence units at the emission wavelengthh 520 nm (phosphopeptide-sensitive wavelength=emission of GFP) to the units at 495 nm (reference wavelength=emission of Terbium-chelate).\nFinal Concentrations in the Enzymatic Reaction", "units": {"IC50": "µM"}, "values": [
      {"smiles": "CCCCOc1ccc(-n2nnc3cnc(Nc4cnn(CC)c4)nc32)cn1", "note": "[Compound A57, [3-(6-butoxy-pyridin-3-yl)-3H-[1,2,3]triazolo[4,5-d]-pyrimidin-5-yl]-(1-ethyl-1H-pyrazol-4-yl)-amine]", "IC50": "0.3 to 3"},
      {"smiles": "CCn1cc(Nc2ncc3nnn(-c4ccc(NC(C)=O)nc4)c3n2)cn1", "note": "[Compound A58, N-{5-[5-(1-ethyl-1H-pyrazol-4-ylamino)-[1,2,3]triazolo[4,5-d]pyrimidin-3-yl]-pyridin-2-yl}-acetamide]", "IC50": "< 0.3"},
      {"smiles": "CCn1cc(Nc2ncc3nnn(-c4cnc5ccccc5c4)c3n2)cn1", "note": "[Compound A61, (1-ethyl-1H-pyrazol-4-yl)-(3-quinolin-3-yl-3H-[1,2,3]triazolo[4,5-d]pyrimidin-5-yl)-amine]", "IC50": "< 0.3"},
      {"smiles": "CCn1cc(Nc2ncc3nnn(-c4ccnc(OC)c4)c3n2)cn1", "note": "[Compound A62, (1-ethyl-1H-pyrazol-4-yl)-[3-(2-methoxy-pyridin-4-yl)-3H-[1,2,3]triazolo[4,5-d]pyrimidin-5-yl]-amine]", "IC50": "< 0.3"},
      {"smiles": "CCn1cc(Nc2ncc3nnn(-c4ccc(F)cc4)c3n2)cn1", "note": "[Compound A63, (1-ethyl-1H-pyrazol-4-yl)-[3-(4-fluoro-phenyl)-3H-[1,2,3]triazolo[4,5-d]pyrimidin-5-yl]-amine]", "IC50": "< 0.3"},
      {"smiles": "CCOc1ccc(-n2nnc3cnc(Nc4cnn(-c5ccccc5)c4)nc32)cc1", "note": "[Compound A64, [3-(4-ethoxy-phenyl)-3H-[1,2,3]triazolo[4,5-d]pyrimidin-5-yl]-(1-phenyl-1H-pyrazol-4-yl)-amine]", "IC50": "< 0.3"},
      {"smiles": "CCn1cc(Nc2ncc3nnn(-c4ccc(O)cc4)c3n2)cn1", "note": "[Compound A66, 4-[5-(1-ethyl-1H-pyrazol-4-ylamino)-[1,2,3]triazolo[4,5-d]pyrimidin-3-yl]-phenol]", "IC50": "< 0.3"},
      {"smiles": "CCn1cc(Nc2ncc3nnn(-c4ccc(F)cc4C#N)c3n2)cn1", "note": "[Compound A72, 2-[5-(1-ethyl-1H-pyrazol-4-ylamino)-[1,2,3]triazolo[4,5-d]pyrimidin-3-yl]-5-fluoro-benzonitrile]", "IC50": "0.3 to 3"},
      {"smiles": "CN1CCC(n2cc(Nc3ncc4nnn(-c5ccc(F)cc5C#N)c4n3)cn2)CC1", "note": "[Compound A74, 5-fluoro-2-{5-[1-(1-methyl-piperidin-4-yl)-1H-pyrazol-4-ylamino]-[1,2,3]triazolo[4,5-d]pyrimidin-3-yl}-benzonitrile]", "IC50": "0.3 to 3"},
      {"smiles": "COc1cc(-n2nnc3cnc(Nc4cnn(C5CCOCC5)c4)nc32)ccn1", "note": "[Compound A78, [3-(2-methoxy-pyridin-4-yl)-3H-[1,2,3]triazolo[4,5-d]pyrimidin-5-yl]-[1-(tetrahydro-pyran-4-yl)-1H-pyrazol-4-yl]-amine]", "IC50": "< 0.3"},
      {"smiles": "c1cnc2cc(-n3nnc4cnc(Nc5cnn(C6CCOCC6)c5)nc43)ccc2c1", "note": "[Compound A86, (3-quinolin-7-yl-3H-[1,2,3]triazolo[4,5-d]pyrimidin-5-yl)-[1-(tetrahydro-pyran-4-yl)-1H-pyrazol-4-yl]-amine]", "IC50": "< 0.3"},
      {"smiles": "CCOc1ccc(-n2nnc3cnc(Nc4cnn(CCC(C)C)c4)nc32)cc1", "note": "[Compound A88, [3-(4-ethoxy-phenyl)-3H-[1,2,3]triazolo[4,5-d]pyrimidin-5-yl]-[1-(3-methyl-butyl)-1H-pyrazol-4-yl]-amine]", "IC50": "< 0.3"},
      {"smiles": "CCn1cc(-n2nnc3cnc(Nc4cnn(CCC(C)C)c4)nc32)cn1", "note": "[Compound A89, [3-(1-ethyl-1H-pyrazol-4-yl)-3H-[1,2,3]triazolo[4,5-d]pyrimidin-5-yl]-[1-(3-methyl-butyl)-1H-pyrazol-4-yl]-amine]", "IC50": "< 0.3"},
      {"smiles": "CC(C)CCn1cc(Nc2ncc3nnn(-c4ccc5ncccc5c4)c3n2)cn1", "note": "[Compound A90, [1-(3-methyl-butyl)-1H-pyrazol-4-yl]-(3-quinolin-6-yl-3H-[1,2,3]triazolo[4,5-d]pyrimidin-5-yl)-amine]", "IC50": "< 0.3"},
      {"smiles": "c1cnc2cc(-n3nnc4cnc(Nc5cnn(C6CCOCC6)c5)nc43)ccc2n1", "note": "[Compound A94, (3-quinoxalin-6-yl-3H-[1,2,3]triazolo[4,5-d]pyrimidin-5-yl)-[1-(tetrahydro-pyran-4-yl)-1H-pyrazol-4-yl]-amine]", "IC50": "< 0.3"},
      {"smiles": "O[C@H]1CC[C@@H](n2cc(Nc3ncc4nnn(-c5ccc(Cl)c(F)c5)c4n3)cn2)CC1", "note": "[Compound A102, 4-{4-[3-(4-chloro-3-fluoro-phenyl)-3H-[1,2,3]triazolo[4,5-d]pyrimidin-5-ylamino]-pyrazol-1-yl}-cyclohexanol]", "IC50": "0.3 to 3"},
      {"smiles": "O[C@H]1CC[C@@H](n2cc(Nc3ncc4nnn(-c5ccc6nccnc6c5)c4n3)cn2)CC1", "note": "[Compound A105, 4-[4-(3-quinoxalin-6-yl-3H-[1,2,3]triazolo[4,5-d]pyrimidin-5-ylamino)-pyrazol-1-yl]-cyclohexanol]", "IC50": "< 0.3"},
      {"smiles": "COc1ccc(-n2nnc3cnc(Nc4cnn([C@H]5CC[C@H](O)CC5)c4)nc32)cn1", "note": "[Compound A109, 4-{4-[3-(6-methoxy-pyridin-3-yl)-3H-[1,2,3]triazolo[4,5-d]pyrimidin-5-ylamino]-pyrazol-1-yl}-cyclohexanol]", "IC50": "0.3 to 3"},
      {"smiles": "Fc1ccc(-n2nnc3cnc(Nc4cnn(C5CCOCC5)c4)nc32)cc1Cl", "note": "[Compound A110, [3-(3-chloro-4-fluoro-phenyl)-3H-[1,2,3]triazolo[4,5-d]pyrimidin-5-yl]-[1-(tetrahydro-pyran-4-yl)-1H-pyrazol-4-yl]-amine]", "IC50": "0.3 to 3"},
      {"smiles": "c1cnc2cc(-n3nnc4cnc(Nc5cnn(C6COC6)c5)nc43)ccc2c1", "note": "[Compound A112, (1-oxetan-3-yl-1H-pyrazol-4-yl)-(3-quinolin-7-yl-3H-[1,2,3]triazolo[4,5-d]pyrimidin-5-yl)-amine]", "IC50": "0.3 to 3"},
      {"smiles": "COC(=O)c1ccc(-n2nnc3cnc(Nc4cnn(C5CCOCC5)c4)nc32)cc1", "note": "[Compound A113, 4-{5-[1-(tetrahydro-pyran-4-yl)-1H-pyrazol-4-ylamino]-[1,2,3]triazolo[4,5-d]pyrimidin-3-yl}-benzoic acid methyl ester]", "IC50": "< 0.3"},
      {"smiles": "Fc1cc(-n2nnc3cnc(Nc4cnn(CCN5CCOCC5)c4)nc32)ccc1Cl", "note": "[Compound A114, [3-(4-chloro-3-fluoro-phenyl)-3H-[1,2,3]triazolo[4,5-d]pyrimidin-5-yl]-[1-(2-morpholin-4-yl-ethyl)-1H-pyrazol-4-yl]-amine]", "IC50": "0.3 to 3"},
      {"smiles": "Fc1ccc(-n2nnc3cnc(Nc4cnn(C5CCOCC5)c4)nc32)cc1F", "note": "[Compound A116, [3-(3,4-difluoro-phenyl)-3H-[1,2,3]triazolo[4,5-d]pyrimidin-5-yl]-[1-(tetrahydro-pyran-4-yl)-1H-pyrazol-4-yl]-amine]", "IC50": "0.3 to 3"},
      {"smiles": "Fc1cccc(-n2nnc3cnc(Nc4cnn(CCCC5CCNCC5)c4)nc32)c1", "note": "[Compound A129, [3-(3-fluoro-phenyl)-3H-[1,2,3]triazolo[4,5-d]pyrimidin-5-yl]-[1-(3-piperidin-4-yl-propyl)-1H-pyrazol-4-yl]-amine]", "IC50": "< 0.3"},
      {"smiles": "O=S(=O)(c1ccc(-n2nnc3cnc(Nc4cnn(CCn5cccn5)c4)nc32)cc1)N1CCCC1", "note": "[Compound A133, [1-(2-pyrazol-1-yl-ethyl)-1H-pyrazol-4-yl]-{3-[4-(pyrrolidine-1-sulfonyl)-phenyl]-3H-[1,2,3]triazolo[4,5-d]-pyrimidin-5-yl}-amine]", "IC50": "< 0.3"},
      {"smiles": "c1cnc2cc(-n3nnc4cnc(Nc5cnn(CCn6cccn6)c5)nc43)ccc2c1", "note": "[Compound A134, [1-(2-pyrazol-1-yl-ethyl)-1H-pyrazol-4-yl]-(3-quinolin-7-yl-3H-[1,2,3]triazolo[4,5-d]pyrimidin-5-yl)-amine]", "IC50": "0.3 to 3"}
    ]}
  ]
}
